What was measured:
[1] = Ciclopirox olamine solubility in Pluronic F127NF / cyclodextrin systems; assay type: physicochemical; conditions: systems with Pluronic F127NF, HPB or MBCD; 25° C.
Method: Dispersions of Pluronic F127NF (0, 10 and 15%) were prepared incorporating hydroxypropyl-β-cyclodextrin or partially methylated β-cyclodextrin at concentrations of 0, 0.5% and 10%. Ciclopirox olamine was added in amounts that far exceeded its aqueous solubility and was stirred at 25° C. for a week. The amount of dissolved ciclopirox was determined spectrophotometrically after filtering the dispersions. Pluronic F127NF dispersions containing 10% of hydroxypropyl-β-cyclodextrin or partially methylated β-cyclodextrin (5% or 10%) and N-acetylcysteine (5-10%) or urea (10-20%) has been studied.

[2] = Penetration of ciclopirox olamine through calf hoof, Franz-Chien cells; assay type: in vitro ADME; conditions: solutions in the absence of N-acetylcysteine
Method: Thermosensitive systems used in penetration studies were prepared as it follows:
1.—Dispersion of the Pluronic F127NF to 20% in cold water with magnetic stirring until complete dissolution.
2.- Ciclopirox olamine was incorporated in adequate quantities for concentrations close to saturation (see FIG. 3). […]
In the formulations prepared with partially methylated β-cyclodextrin, it was incorporated into the system at a concentration of 10% prior to the dissolution of triamcinolone acetonide, allowing soluble increasing doses of the drug (see FIG. 3).
Penetration studies were performed with cylindrical thin slices of calf hoof membrane (0.8-1 mm). The bovine hoof samples were placed using two Teflon adapters between the donor and acceptor compartment of vertical Franz-Chien penetration cells. In the receptor compartment, phosphate buffer (pH 7.4) was added and maintained at 37° C. 1 g of the thermosensitive systems was placed into the […]. […] The medium extracted was replaced with the same amount of buffer. The results were normalized by the diffusion surface and the thickness of the calf hoof slides used.

[3] = Triamcinolone acetonide solubility in Pluronic F127NF / cyclodextrin systems; assay type: physicochemical; conditions: systems with Pluronic F127NF, HPB or MBCD; 25° C.
Method: Aqueous dispersions of Pluronic F127NF containing a 0.10 and 15%, were prepared by stirring the polymer in water at 4° C. to study the incorporation of the drug. Hydroxypropyl-β-cyclodextrin or partially methylated β-cyclodextrin at concentrations of 0, 0.5% and 10% were also incorporated. Triamcinolone acetonide was added in amounts that far exceeded its aqueous solubility and was stirred at 25° C. for a week. The amount of dissolved triamcinolone was determined spectrophotometrically after filtering the dispersions through a membrane filter of 0.45 micron pore size.

[4] = Penetration of triamcinolone acetonide through calf hoof, Franz-Chien cells; assay type: in vitro ADME; conditions: solutions in the absence of N-acetylcysteine
Description: For the preparation of thermosensitive systems used in penetration studies through the nail we proceeded as it follows:
1.—Dispersion of the Pluronic F127NF at 10 or 20% (depending on the formulation) in cold water with magnetic stirring until complete dissolution.
2.—Incorporation of triamcinolone acetonide in quantities for concentrations close to saturation (see FIG. 1). […]
In the formulations containing partially methylated β-cyclodextrin, it was incorporated into the system at concentrations of 10% prior to the dissolution of triamcinolone acetonide in order to increase aqueous concentration of the drug (see FIG. 1).
To perform the penetration studies, cylindrical thin slices of calf hoof membrane (0.8-1 mm) were used. The bovine hoof samples were placed using two Teflon adapters between the donor and acceptor compartment of vertical Franz-Chien penetration cells. In the receptor compartment, phosphate buffer (pH 7.4) was added and maintained at 37° C. 1 g of the thermosensitive systems was placed into the […]. Samples from receptor solution were collected at scheduled time, determining the concentration of triamcinolone acetonide by HPLC. The results were normalized by the diffusion surface and the thickness of the calf hoof slides used.

Row | Effect of N-acetylcysteine or urea on ciclopirox olamine solubility [1] | SMILES | Diffusion and penetration of ciclopirox olamine through calf hoof [2] | Effect of N-acetylcysteine on triamcinolone acetonide solubility [3] | Penetration of triamcinolone acetonide through calf hoof [4]
1 | significantly influences the solubility | Cc1cc(C2CCCCC2)n(O)c(=O)c1 [Ciclopirox olamine] | did not detect drug diffusion and penetration |  | 
2 |  | CC1(C)O[C@@H]2C[C@H]3[C@@H]4CCC5=CC(=O)C=C[C@]5(C)[C@@]4(F)[C@@H](O)C[C@]3(C)[C@]2(C(=O)CO)O1 [Triamcinolone acetonide] |  | did not alter the solubility | did not detect the penetration

Source: patent US20130115181A1, “AQUEOUS PHARMACEUTICAL SYSTEM FOR THE ADMINISTRATION OF DRUGS TO THE NAILS” (UNIVERSIDADE DE SANTIAGO DE COMPOSTELA, priority 2010, published 2013)
